Patent US20220015372A1, “BIOLOGICALS AND THEIR USE IN PLANTS” (PIONEER HI-BRED INTERNATIONAL, INC., priority 2018, published 2022)

Experiments:
[1] = test system: beet armyworm (Spodoptera exigua; BAW); test: Medium-sized plant-based assay on corn, BAW; format: in vivo; design: key to insect live or dead: live=F; dead=K
Protocol: (§1) Broths A and B were tested against four insect species in medium insect test units; DBM, FAW, beet armyworm (Spodoptera exigua; BAW), and corn earworm (Helicoverpa zea; CEW). Test units were comprised of 70 cm^3 bases with 35 g of Woodstown Sandy Loam soil (Delmar, Del.) and mustard (Brassicae kaber; 6.5-7 cm), corn (Zea mays; 7-8 cm) or Bush bean (Phaseolus vulgaris; 6-7cm) as host plants for DBM, FAW and BAW, and CEW, respectively. Three concentrations of Broths A and B were tested: 0.25, 0.5 and 1×, with and without the surfactant X-77. Spinetoram was included as a positive control. Untreated controls were also included. Test units were sprayed with 1.2 mL of broth, in triplicate, and subsequently infested with approximately 15-20 stage 1 BAW or FAW larvae, or 30-40 neonate DBM or CEW. Units were kept in controlled conditions of 25° C./70% RH/16:8 h (L:D) photoperiod for six days and then scored. There are two scores given for each treatment, (1) plant damage rating from 0-10, with 0 being no damage and 10 being plant was completely consumed, and (2) insect live or dead (live=F; dead=K). The scores are averages of the three technical replicates. Any treatment with a plant damage score of 3 or less and an insect rating of K was considered to be active.

[2] = test system: corn earworm (Helicoverpa zea; CEW); test: Medium-sized plant-based assay on bush bean, CEW; format: in vivo; design: key to insect live or dead: live=F; dead=K
Protocol: as §1

[3] = test system: FAW; test: Medium-sized plant-based assay on corn, FAW; format: in vivo, Spodoptera frugiperda; design: key to insect live or dead: live=F; dead=K
Protocol: as §1

[4] = test system: European corn borer (ECB, Ostrinia nubilalis); test: Lepidoptera diet-based feeding assay, ECB; format: in vivo; conditions: serial dilutions of Kings Medium fermentate (depsipeptide 55 ug/ml) in artificial diet
Protocol: (§2) Lepidopteran feeding assays (including FAW) were conducted on an artificial diet containing fermented broth in a 96 well plate set up. The broth was incorporated with multi-species Lepidopteran artificial diet (Southland Products Inc., Arkansas) in a ratio of 25 μl test sample and 35 μl of diet. Two to five neonate larvae were placed in each well to feed for 4 days. Results were expressed as positive for larvae reactions such as stunting and/or mortality. Results were expressed as negative if the larvae were similar to the negative control that is fed diet to which the above control broth only has been applied.

[5] = test system: corn earworm (Hehcoverpa zea); test: Lepidoptera diet-based feeding assay, CEW; format: in vivo, Helicoverpa zea; conditions: serial dilutions of Kings Medium fermentate (depsipeptide 55 ug/ml) in artificial diet
Protocol: as §2

[6] = test system: soybean looper (SBL, Pseudoplusia includens); test: Lepidoptera diet-based feeding assay, SBL; format: in vivo; conditions: serial dilutions of Kings Medium fermentate (depsipeptide 55 ug/ml) in artificial diet
Protocol: as §2

[7] = test system: Western Corn Rootworm (WCRW, Diabrotica virgifera virgifera); test: Coleoptera diet based feeding assay, WCRW; format: in vivo; conditions: serial dilutions of Kings Medium fermentate (depsipeptide 55 ug/ml) in artificial diet
Protocol: Western Corn Rootworm (WCRW, Diabrotica virgifera virgifera) bioassays were conducted in a 96 well plate format, mixing 10 μl of test sample with 50 μl molten modified Southern Corn Rootworm diet (Frontier Agricultural Sciences, diet F9800B). WCRW neonates were placed into each well before heat sealed with a Mylar film. Holes are punched in the film to allow air exchange. The assay was run four days at 25° C. in the dark. The plates were then scored for insect mortality and stunting of insect growth. The scores were noted as dead, severely stunted (little or no growth but alive), stunted (growth but not equivalent to controls) or no activity.

[8] = test system: Fall Armyworm (FAW, Spodoptera frugiperda); test: Lepidoptera diet-based feeding assay, FAW; format: in vivo; conditions: serial dilutions of Kings Medium fermentate (depsipeptide 55 ug/ml) in artificial diet
Protocol: as §2

[9] = 0.1 ppm, Table 3 assay without X-77, six days
[10] = 0.1 ppm, Table 4 assay with X-77, six days
[11] = 0.2 ppm, Table 3 assay without X-77, six days
[12] = 0.2 ppm, Table 4 assay with X-77, six days
[13] = 2 ppm, Table 3 assay without X-77, six days
[14] = 2 ppm, Table 4 assay with X-77, six days

Spinetoram
1: plant damage rating from 0-10 [2, 9] | plant damage rating from 0-10 [2, 10] | plant damage rating from 0-10 [2, 11] | plant damage rating from 0-10 [2, 12] | plant damage rating from 0-10 [3, 11] | plant damage rating from 0-10 [3, 12]
5: plant damage rating from 0-10 [3, 9] | plant damage rating from 0-10 [3, 10]
F: insect live or dead [1, 9] | insect live or dead [1, 10] | insect live or dead [1, 11] | insect live or dead [1, 12] | insect live or dead [1, 14] | insect live or dead [3, 9] | insect live or dead [3, 10]
0: plant damage rating from 0-10 [1, 13] | plant damage rating from 0-10 [2, 13] | plant damage rating from 0-10 [2, 14] | plant damage rating from 0-10 [3, 13] | plant damage rating from 0-10 [3, 14]
7: plant damage rating from 0-10 [1, 9] | plant damage rating from 0-10 [1, 10]
K: insect live or dead [1, 13] | insect live or dead [2, 9] | insect live or dead [2, 10] | insect live or dead [2, 11] | insect live or dead [2, 12] | insect live or dead [2, 13] | insect live or dead [2, 14] | insect live or dead [3, 11] | insect live or dead [3, 12] | insect live or dead [3, 13] | insect live or dead [3, 14]
4: plant damage rating from 0-10 [1, 11] | plant damage rating from 0-10 [1, 12] | plant damage rating from 0-10 [1, 14]

FR901375 [depsipeptide]
2 ppm: minimal dose to achieve 100% mortality [4]
11 ppm: minimal dose to achieve 100% mortality [5]
1 ppm: minimal dose to achieve 100% mortality [6]
2 pmm: minimal dose to achieve 100% mortality [8]
23 ppm: minimal dose to achieve 100% mortality [7]
